Assay results: ChEMBL document CHEMBL1201862, “PubChem BioAssay data set” (2004)
“And” between values parts separate entries of the source, which are not always exact repeats. Equal values may be shown once.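 Growth conditions: 96-well plates. Treatment: test compound, 48 hours, 5 concentrations. Analysis: linear interpolation between bracketing concentrations; unreached endpoints set to highest concentration. At the GI50, growth is halved.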 The source made the active and inactive calls. Rule as the data show it: active = GI50 up to about 1.1 µM and inactive = higher.

Tests used:
Assay in all cases: NCI anticancer screen, dose series, 48 h
UACC-62 = tested on: UACC-62
SN12C = tested on: SN12C
SK-OV-3 = tested on: SK-OV-3
T47D = tested on: T47D
SF-295 = tested on: SF-295
SNB-19 = tested on: SNB-19
HCT-15 = tested on: HCT-15
786-0 = tested on: 786-0
PC-3 = tested on: PC-3
OVCAR-5 = tested on: OVCAR-5
SK-MEL-2 = tested on: SK-MEL-2
MOLT-4 = tested on: MOLT-4
K562 = tested on: K562
DU-145 = tested on: DU-145
LOX IMVI = tested on: LOX IMVI
RPMI-8226 = tested on: RPMI-8226
A498 = tested on: A498
HT-29 = tested on: HT-29
OVCAR-4 = tested on: OVCAR-4
TK-10 = tested on: TK-10
CAKI-1 = tested on: CAKI-1
HCT-116 = tested on: HCT-116
HOP-92 = tested on: HOP-92
SK-MEL-28 = tested on: SK-MEL-28
M14 = tested on: M14
MDA-MB-435 = tested on: MDA-MB-435
COLO 205 = tested on: COLO 205
BT-549 = tested on: BT-549
KM12 = tested on: KM12
ACHN = tested on: ACHN
HOP-62 = tested on: HOP-62
NCI-H522 = tested on: NCI-H522
SF-268 = tested on: SF-268
NCI-H226 = tested on: NCI-H226
OVCAR-8 = tested on: OVCAR-8
UO-31 = tested on: UO-31
NCI/ADR-RES = tested on: NCI/ADR-RES
SK-MEL-5 = tested on: SK-MEL-5
Malme-3M = tested on: Malme-3M
CCRF-CEM = tested on: CCRF-CEM
IGROV-1 = tested on: IGROV-1
MDA-MB-231 = tested on: MDA-MB-231
SW-620 = tested on: SW-620
Hs-578T = tested on: Hs-578T
U-251 = tested on: U-251
A549 = tested on: A549
MCF7 = tested on: MCF7
NCI-H23 = tested on: NCI-H23
OVCAR-3 = tested on: OVCAR-3
EKVX = tested on: EKVX
NCI-H460 = tested on: NCI-H460
RXF 393 = tested on: RXF 393
SNB-75 = tested on: SNB-75
MDA-N = tested on: MDA-N
UACC-257 = tested on: UACC-257
SR = tested on: SR
HL-60 = tested on: HL-60

Measured: GI50

c1ccc(CCN2CCCCCC2)nc1
> 100 µM: HCT-15
inactive: UACC-62 > 100 µM | SN12C > 100 µM | SK-OV-3 > 100 µM | T47D > 100 µM | SF-295 > 100 µM | SNB-19 > 100 µM | 786-0 > 100 µM | PC-3 > 100 µM | OVCAR-5 > 100 µM | SK-MEL-2 > 100 µM | MOLT-4 > 100 µM | K562 > 100 µM | DU-145 > 100 µM | LOX IMVI > 100 µM | RPMI-8226 > 100 µM | A498 > 100 µM | HT-29 > 100 µM | OVCAR-4 > 100 µM | TK-10 > 100 µM | CAKI-1 > 100 µM | HCT-116 > 100 µM | HOP-92 > 100 µM | SK-MEL-28 > 100 µM | M14 > 100 µM | MDA-MB-435 > 100 µM | COLO 205 > 100 µM | BT-549 > 100 µM | KM12 > 100 µM | ACHN > 100 µM | HOP-62 > 100 µM | NCI-H522 > 100 µM | SF-268 > 100 µM | NCI-H226 > 100 µM | OVCAR-8 > 100 µM | UO-31 > 100 µM | NCI/ADR-RES > 100 µM | SK-MEL-5 > 100 µM | Malme-3M > 100 µM | CCRF-CEM > 100 µM | IGROV-1 > 100 µM | MDA-MB-231 > 100 µM | SW-620 > 100 µM | Hs-578T > 100 µM | U-251 > 100 µM | A549 > 100 µM | MCF7 > 100 µM | NCI-H23 > 100 µM | OVCAR-3 > 100 µM | EKVX 66.8 µM | NCI-H460 > 100 µM | RXF 393 > 100 µM

CC(=O)O[C@H]1CC2C(C3CC[C@H](C(C)CCC(=O)O)[C@]31C)[C@H](OC(C)=O)C[C@@H]1CC3(CC[C@]21C)OOC1(CCC(C)CC1)OO3 (stereo not given in full)
inactive: SN12C 2.72 µM and 4.18 µM | T47D 3.07 µM and 2.31 µM | SNB-75 1.6 µM | MDA-N 3.77 µM and 5.71 µM | PC-3 5.15 µM and 3.17 µM | MOLT-4 2.2 µM and 1.51 µM | K562 3.13 µM and 3.9 µM | DU-145 3.32 µM and 4.98 µM | LOX IMVI 2.15 µM and 3.27 µM | RPMI-8226 1.91 µM and 2.05 µM | A498 15 µM and 13 µM | HT-29 2.11 µM and 1.81 µM | OVCAR-4 2.56 µM and 2.32 µM | HCT-116 2.16 µM and 4.11 µM | SK-MEL-28 2.06 µM and 1.66 µM | M14 3.49 µM and 6.67 µM | UACC-257 6.92 µM and 11.7 µM | MDA-MB-435 2.62 µM and 4.74 µM | COLO 205 2.53 µM | BT-549 3.69 µM and 2.74 µM | SR 1.55 µM | ACHN 2.59 µM and 4.31 µM | HOP-62 3.16 µM | NCI-H522 2.98 µM and 1.61 µM | OVCAR-8 1.98 µM and 2.85 µM | UO-31 2.61 µM | HL-60 2.97 µM and 2.37 µM | CCRF-CEM 1.67 µM and 2.03 µM | IGROV-1 2.01 µM | Hs-578T 3.4 µM and 1.76 µM | U-251 1.76 µM and 3.35 µM | A549 1.55 µM and 2.82 µM | MCF7 2.96 µM and 4.86 µM | NCI-H23 2.28 µM and 4.31 µM | EKVX 2.08 µM | NCI-H460 2.33 µM and 3.53 µM | RXF 393 7.82 µM and 12.9 µM
2.37 µM and 2.96 µM: HCT-15
